Assay [1] can be described thus: SAR analysis of small molecule activators of Apaf-1 using a LZ-Caspase-9/Caspase-3 Fluorescent Selectivity assay - Set 2. The class given is functional. Particulars: read-out: EC50_Mean.
The target of assay [2] is T1, Apoptotic protease-activating factor 1 (Homo sapiens, UniProt O14727).
T1 sequence (O14727 whole entry): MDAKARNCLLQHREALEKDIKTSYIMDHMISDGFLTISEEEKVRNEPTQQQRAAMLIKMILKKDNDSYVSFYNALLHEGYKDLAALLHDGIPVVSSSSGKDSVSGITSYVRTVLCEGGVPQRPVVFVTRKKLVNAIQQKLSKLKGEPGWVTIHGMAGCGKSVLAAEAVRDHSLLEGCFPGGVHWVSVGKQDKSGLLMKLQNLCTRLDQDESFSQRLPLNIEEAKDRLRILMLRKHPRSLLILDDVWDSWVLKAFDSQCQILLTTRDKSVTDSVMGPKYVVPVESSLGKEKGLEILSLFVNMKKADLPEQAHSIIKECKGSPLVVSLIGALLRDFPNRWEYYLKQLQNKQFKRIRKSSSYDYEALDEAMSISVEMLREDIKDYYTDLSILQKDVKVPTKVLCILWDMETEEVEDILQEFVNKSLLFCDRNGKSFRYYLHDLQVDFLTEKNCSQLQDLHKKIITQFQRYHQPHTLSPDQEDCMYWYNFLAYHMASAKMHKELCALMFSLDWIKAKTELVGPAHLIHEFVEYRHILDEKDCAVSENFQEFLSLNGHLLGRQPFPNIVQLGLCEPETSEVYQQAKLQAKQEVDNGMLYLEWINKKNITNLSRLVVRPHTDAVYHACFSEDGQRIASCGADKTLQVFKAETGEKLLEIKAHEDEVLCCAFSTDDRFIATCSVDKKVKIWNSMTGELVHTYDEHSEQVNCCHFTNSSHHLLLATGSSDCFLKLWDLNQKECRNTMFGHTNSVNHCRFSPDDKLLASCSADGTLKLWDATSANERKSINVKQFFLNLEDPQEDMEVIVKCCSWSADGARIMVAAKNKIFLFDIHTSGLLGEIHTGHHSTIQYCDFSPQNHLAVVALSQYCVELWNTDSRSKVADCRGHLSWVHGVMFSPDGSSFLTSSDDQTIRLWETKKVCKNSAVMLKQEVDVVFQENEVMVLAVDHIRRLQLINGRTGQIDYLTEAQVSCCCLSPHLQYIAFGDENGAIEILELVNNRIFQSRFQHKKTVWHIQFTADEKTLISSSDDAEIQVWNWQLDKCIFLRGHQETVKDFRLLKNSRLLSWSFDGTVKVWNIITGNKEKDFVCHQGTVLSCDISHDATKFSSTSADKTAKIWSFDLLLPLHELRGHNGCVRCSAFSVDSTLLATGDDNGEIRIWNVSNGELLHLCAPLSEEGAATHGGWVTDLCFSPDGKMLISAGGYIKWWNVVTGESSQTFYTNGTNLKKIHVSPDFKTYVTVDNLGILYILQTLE
Kind of assay: SAR analysis of small molecule Activators of Apaf-1 in a Fluorescent assay - set 2. The assay is classed as functional. Particulars: read-out: EC50_Mean.

In assay [3] the target is Beta-lactamase (Salmonella choleraesuis (strain SC-B67), UniProt Q5J463).
Chain of Beta-lactamase (Salmonella choleraesuis (strain SC-B67), UniProt Q5J463) (Q5J463 whole entry): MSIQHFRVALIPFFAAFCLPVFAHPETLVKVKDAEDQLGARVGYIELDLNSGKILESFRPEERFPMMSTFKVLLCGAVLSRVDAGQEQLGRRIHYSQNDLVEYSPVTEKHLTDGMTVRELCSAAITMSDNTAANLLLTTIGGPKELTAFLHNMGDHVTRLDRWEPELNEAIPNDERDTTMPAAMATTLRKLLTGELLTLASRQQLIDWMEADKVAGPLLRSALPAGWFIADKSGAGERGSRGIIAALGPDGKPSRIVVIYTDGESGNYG
The target of assay [4] is T1, Apoptotic protease-activating factor 1. Kind of assay: SAR analysis of small molecule inhibitors of Apaf-1 in a Fluorescent assay. The class given is functional. Particulars: read-out: IC50_Mean.
In assay [5] the target is T2, Bcl-2-related protein A1 (Mus musculus, UniProt Q07440).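 Further: confirmatory dose–response counterscreen on Bfl-1, used to check hits from a UBC13 polyubiquitin inhibitor campaign.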
T2 sequence (Q07440 whole entry): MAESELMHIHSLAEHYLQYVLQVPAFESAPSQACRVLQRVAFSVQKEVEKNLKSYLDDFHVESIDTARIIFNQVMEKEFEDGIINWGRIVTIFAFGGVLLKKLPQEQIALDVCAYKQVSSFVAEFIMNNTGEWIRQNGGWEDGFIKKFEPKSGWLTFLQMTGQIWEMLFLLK
The class given is functional.

Assay [6] has as its target T3, Ubiquitin-conjugating enzyme E2 N (Homo sapiens, UniProt P61088).
T3 sequence (P61088 whole entry): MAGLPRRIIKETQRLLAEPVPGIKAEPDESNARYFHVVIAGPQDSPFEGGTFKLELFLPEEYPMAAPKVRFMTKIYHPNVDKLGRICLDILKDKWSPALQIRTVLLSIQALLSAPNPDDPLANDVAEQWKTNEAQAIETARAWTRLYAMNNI
The assay is classed as functional.

Assay [7] deals with Beta-lactamase (Pseudomonas aeruginosa, UniProt Q79MP6).
Chain of Beta-lactamase (Pseudomonas aeruginosa, UniProt Q79MP6) (Q79MP6 whole entry): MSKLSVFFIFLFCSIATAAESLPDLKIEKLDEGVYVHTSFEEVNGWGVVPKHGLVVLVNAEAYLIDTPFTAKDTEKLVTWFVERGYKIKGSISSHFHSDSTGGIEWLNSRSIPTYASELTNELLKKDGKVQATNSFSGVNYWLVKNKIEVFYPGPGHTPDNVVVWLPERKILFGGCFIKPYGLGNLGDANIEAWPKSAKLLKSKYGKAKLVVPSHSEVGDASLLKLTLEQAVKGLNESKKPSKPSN
Assay [8] has as its target Beta Lactamase (Pseudomonas aeruginosa, UniProt Q932Y6).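 Further: confirmatory high-throughput screen measuring VIM-2 metallo-beta-lactamase inhibition by epi-absorbance in dose response.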
For assay [9], the target named is T1, Apoptotic protease-activating factor 1. The class given is functional.
The target of assay [10] is E3 ubiquitin-protein ligase XIAP (Homo sapiens, UniProt P98170). Kind of assay: Counter Screen using XIAP-Bir3 for Chemical Antagonists of Bir1/2 domains of IAP-family anti-apoptotic proteins. [Related pubchem assays (depositor defined):AID1018, AID1449, AID1514, AID1638, AID1749, AID1750, AID488957, AID488963].
Chain of E3 ubiquitin-protein ligase XIAP (P98170 whole entry): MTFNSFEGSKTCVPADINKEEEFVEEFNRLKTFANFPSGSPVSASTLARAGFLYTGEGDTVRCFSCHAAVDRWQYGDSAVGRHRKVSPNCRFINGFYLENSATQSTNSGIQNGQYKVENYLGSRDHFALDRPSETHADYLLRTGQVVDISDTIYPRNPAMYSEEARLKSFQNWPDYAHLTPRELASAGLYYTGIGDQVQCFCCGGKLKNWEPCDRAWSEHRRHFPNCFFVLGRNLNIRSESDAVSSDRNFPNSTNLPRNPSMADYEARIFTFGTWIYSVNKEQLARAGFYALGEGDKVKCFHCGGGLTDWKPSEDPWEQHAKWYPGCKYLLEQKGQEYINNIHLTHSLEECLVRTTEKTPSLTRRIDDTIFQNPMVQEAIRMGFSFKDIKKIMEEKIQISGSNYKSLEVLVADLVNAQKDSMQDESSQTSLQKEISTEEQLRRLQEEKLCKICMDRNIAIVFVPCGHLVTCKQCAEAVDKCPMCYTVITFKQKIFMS
For assay [11], the target named is T3, Ubiquitin-conjugating enzyme E2 N. The class given is functional. The source holds these as a separate data set.
Assay [12] concerns the target T4, Neuropeptides B/W receptor type 1 (Homo sapiens, UniProt P48145). The assay can be described thus: human NPBW1 receptor blockade, IC50 – cell-based, fluorescence, dose response, set 5, late-stage follow-up (AID 588566). The assay is classed as functional.
In assay [13] the target is T5, Melanin-concentrating hormone receptor 1 (Homo sapiens, UniProt Q99705). Kind of assay: Late-stage fluorescence-based counterscreen for antagonists of the G-protein coupled receptor 7 (GPR7): cell-based dose response assay to identify antagonists of the melanin-concentrating hormone receptor 1 (MCHR1) Set 5. The assay is classed as functional. Background: The purpose of a counterscreen is to sort out artefacts and off-target activity.
T5 sequence (Q99705 whole entry): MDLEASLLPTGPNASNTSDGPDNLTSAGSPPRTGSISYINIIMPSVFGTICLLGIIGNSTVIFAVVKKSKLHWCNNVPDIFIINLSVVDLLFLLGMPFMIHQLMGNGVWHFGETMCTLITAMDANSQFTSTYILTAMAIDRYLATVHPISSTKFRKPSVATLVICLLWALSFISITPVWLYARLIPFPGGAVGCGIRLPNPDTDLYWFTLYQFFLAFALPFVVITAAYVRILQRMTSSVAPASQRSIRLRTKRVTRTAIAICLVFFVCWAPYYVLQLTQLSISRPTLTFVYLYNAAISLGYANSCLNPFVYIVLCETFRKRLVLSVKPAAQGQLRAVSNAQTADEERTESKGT

The target of assay [14] is T4, Neuropeptides B/W receptor type 1. Kind of assay: human NPBW1 receptor blockade, IC50 – cell-based, fluorescence, dose response, set 6, late-stage follow-up (AID 588583). The assay is classed as functional.
Assay [15] has as its target T5, Melanin-concentrating hormone receptor 1. Kind of assay: Late-stage fluorescence-based counterscreen for antagonists of the G-protein coupled receptor 7 (GPR7): cell-based dose response assay to identify antagonists of the melanin-concentrating hormone receptor 1 (MCHR1) Set 6. The class given is functional.
Assay [16] deals with High affinity nerve growth factor receptor (Homo sapiens, UniProt P04629). The class given is functional.
Chain of High affinity nerve growth factor receptor (P04629 whole entry): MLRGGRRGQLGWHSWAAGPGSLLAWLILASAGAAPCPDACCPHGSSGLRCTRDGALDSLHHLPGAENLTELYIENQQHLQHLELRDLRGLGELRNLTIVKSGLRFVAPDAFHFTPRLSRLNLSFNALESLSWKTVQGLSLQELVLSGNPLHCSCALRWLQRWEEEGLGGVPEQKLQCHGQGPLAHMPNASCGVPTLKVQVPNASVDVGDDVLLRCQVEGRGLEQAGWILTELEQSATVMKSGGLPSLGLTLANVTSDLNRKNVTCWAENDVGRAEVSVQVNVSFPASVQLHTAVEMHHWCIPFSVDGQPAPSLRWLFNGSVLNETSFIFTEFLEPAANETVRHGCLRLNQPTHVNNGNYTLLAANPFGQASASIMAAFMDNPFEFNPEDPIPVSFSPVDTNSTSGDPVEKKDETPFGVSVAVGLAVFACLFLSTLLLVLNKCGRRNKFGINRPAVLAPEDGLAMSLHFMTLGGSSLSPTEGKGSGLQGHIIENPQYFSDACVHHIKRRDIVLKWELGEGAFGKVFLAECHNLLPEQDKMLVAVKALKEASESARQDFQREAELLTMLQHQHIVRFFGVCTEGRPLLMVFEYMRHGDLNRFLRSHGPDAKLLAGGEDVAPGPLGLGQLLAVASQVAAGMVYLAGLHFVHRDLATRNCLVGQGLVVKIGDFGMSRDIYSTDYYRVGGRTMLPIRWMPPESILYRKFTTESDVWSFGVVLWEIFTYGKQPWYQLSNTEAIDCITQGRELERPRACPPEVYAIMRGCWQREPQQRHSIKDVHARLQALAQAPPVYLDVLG
The target of assay [17] is Cyclin-dependent kinase 19 (Homo sapiens, UniProt Q9BWU1). The assay can be described thus: Navigating the Kinome. Panel member name: CDC2L6. The assay is classed as functional.
Chain of Cyclin-dependent kinase 19 (Q9BWU1 whole entry): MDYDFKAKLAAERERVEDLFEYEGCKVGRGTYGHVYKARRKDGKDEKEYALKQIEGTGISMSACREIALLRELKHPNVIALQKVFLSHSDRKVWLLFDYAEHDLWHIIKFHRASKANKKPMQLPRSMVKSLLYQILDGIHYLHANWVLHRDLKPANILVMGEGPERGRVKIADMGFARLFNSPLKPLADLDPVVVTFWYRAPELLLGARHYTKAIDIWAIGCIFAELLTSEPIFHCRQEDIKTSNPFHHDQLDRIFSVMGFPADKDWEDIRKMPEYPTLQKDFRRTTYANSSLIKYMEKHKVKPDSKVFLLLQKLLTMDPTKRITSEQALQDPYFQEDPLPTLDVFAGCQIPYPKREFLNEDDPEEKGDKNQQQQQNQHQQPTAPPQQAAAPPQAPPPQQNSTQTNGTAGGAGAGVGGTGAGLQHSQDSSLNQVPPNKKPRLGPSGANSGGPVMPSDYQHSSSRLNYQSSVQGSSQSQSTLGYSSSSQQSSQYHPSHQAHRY
The target of assay [18] is Glycogen synthase kinase-3 beta (Homo sapiens, UniProt P49841). The assay can be described thus: inhibition of human GSK3B activity – biochemical, microfluidics, dry powder samples, set 2, dose response (AID 623989). The assay is classed as functional.
Chain of Glycogen synthase kinase-3 beta (P49841 whole entry): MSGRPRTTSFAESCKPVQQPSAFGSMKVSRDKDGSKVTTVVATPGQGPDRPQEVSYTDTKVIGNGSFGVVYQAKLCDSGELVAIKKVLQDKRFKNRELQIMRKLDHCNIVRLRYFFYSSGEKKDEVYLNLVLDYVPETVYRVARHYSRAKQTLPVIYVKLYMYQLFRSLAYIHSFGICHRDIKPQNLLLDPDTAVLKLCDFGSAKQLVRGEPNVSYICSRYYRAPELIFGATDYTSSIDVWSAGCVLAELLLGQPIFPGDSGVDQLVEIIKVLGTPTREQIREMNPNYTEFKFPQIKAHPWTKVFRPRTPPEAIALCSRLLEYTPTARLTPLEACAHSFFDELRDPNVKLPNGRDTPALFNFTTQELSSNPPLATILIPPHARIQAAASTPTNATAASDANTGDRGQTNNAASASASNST
Assay [19] concerns the target Glycogen synthase kinase-3 alpha (Homo sapiens, UniProt P49840). Kind of assay: GSK3A enzyme blockers, homolog specificity check – biochemical, microfluidics, dry powder samples, set 2, selectivity assay for GSK3beta inhibitor project, dose response (AID 623978). The class given is functional.
Assay [20] in a line: Vero cell cytotoxicity, dose response, cytotoxicity control for M. tuberculosis growth inhibitor project, Vero cells, purified and synthesized compounds, set 5 (AID 504909). The assay is classed as functional. Conditions: Mycobacterium tuberculosis.
Assay [21] in a line: Vero cell cytotoxicity, dose response, cytotoxicity control for M. tuberculosis growth inhibitor project, Vero cells, purified and synthesized compounds, set 4 (AID 504854). Particulars: Mycobacterium tuberculosis. The assay is classed as functional.

Consider seven compounds from ChEMBL document CHEMBL1201862, “PubChem BioAssay data set” (2004).

One may read the Ki as the equilibrium dissociation constant of an inhibitor or competing ligand from its target. By AC50 is commonly meant the concentration at which the activity in the assay is half-maximal. As usually defined, the CC50 is the concentration giving 50% cytotoxicity.

Structures are written as SMILES. Activity calls are given as the source filed them.

T4 sequence (P48145 whole entry): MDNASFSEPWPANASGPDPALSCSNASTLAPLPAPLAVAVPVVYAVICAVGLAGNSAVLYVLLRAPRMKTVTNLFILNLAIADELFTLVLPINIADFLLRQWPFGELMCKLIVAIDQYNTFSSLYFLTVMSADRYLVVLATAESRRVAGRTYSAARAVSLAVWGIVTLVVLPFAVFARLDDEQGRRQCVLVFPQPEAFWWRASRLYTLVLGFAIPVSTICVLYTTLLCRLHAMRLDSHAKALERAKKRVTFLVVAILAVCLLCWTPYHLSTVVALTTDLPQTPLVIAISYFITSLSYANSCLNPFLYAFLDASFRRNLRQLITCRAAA
Chain of Beta Lactamase (Q932Y6 whole entry): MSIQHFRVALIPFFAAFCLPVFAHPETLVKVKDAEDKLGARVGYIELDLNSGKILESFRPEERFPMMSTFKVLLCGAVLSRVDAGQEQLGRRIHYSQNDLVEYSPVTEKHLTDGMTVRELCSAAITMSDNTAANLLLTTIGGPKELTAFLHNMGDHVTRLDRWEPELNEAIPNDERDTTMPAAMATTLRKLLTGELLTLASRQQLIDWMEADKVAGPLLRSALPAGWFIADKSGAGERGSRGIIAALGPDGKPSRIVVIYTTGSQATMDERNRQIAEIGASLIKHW
Chain of Glycogen synthase kinase-3 alpha (P49840 whole entry): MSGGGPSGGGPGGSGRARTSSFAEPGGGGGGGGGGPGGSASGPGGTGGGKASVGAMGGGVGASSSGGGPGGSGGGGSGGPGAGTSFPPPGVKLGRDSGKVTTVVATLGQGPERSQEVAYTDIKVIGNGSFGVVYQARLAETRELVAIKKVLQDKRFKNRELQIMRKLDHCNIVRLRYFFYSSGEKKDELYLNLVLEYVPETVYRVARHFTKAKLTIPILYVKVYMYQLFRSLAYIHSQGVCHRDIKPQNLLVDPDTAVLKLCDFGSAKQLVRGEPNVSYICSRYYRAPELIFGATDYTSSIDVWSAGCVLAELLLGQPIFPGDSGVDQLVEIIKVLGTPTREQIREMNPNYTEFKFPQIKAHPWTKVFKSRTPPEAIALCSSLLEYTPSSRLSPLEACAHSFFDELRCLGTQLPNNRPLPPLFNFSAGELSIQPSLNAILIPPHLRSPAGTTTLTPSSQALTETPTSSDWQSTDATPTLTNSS

On to `O=C(O)C1CC(c2ccccc2Cl)=NO1` (stereo unspecified), for which the EC50 in [1] and in assay [2] was > 100 µM (inactive) throughout.

`CCN(CC)CCOC(=O)c1ccc(N/C=C(/C#N)c2nc(-c3cc4ccccc4oc3=O)cs2)cc1`: the IC50 in [3] was > 59.6 µM (inactive); in [4], 3.09 µM (active); in assay [5], 0.55 µM (active); in assay [6], 3.5 µM (active); in [7] it was > 59.6 µM (inactive); in [8], > 59.6 µM (inactive). In addition, the figures for the IC50 in assay [9], in [10] and in assay [11] were 4.12 µM (active), > 20 µM (inactive) and 3.74 µM (active), respectively.

Turning to `COc1ccc(Oc2c(Cl)c(C(=O)O)nn(-c3ccc(C(C)C)cc3)c2=O)cc1`, the IC50 in [12] and in assay [13] was > 20 µM (inactive) each time.

For the compound `N#CC(c1ccc(F)cc1Cl)c1c(Cl)cnn(Cc2cccc3ccccc23)c1=O` (stereo unspecified), the IC50 in assay [14] and in assay [15] was 1.71 µM (active) throughout.

Turning to `O=C(Nc1cccc(C(F)(F)F)c1)Nc1cc(Cl)ccc1O`, the inhibition constant Ki in assay [16] is 10 µM (active); in assay [17], 20 µM (active).

On to `CCOc1ccccc1/C=N/NC(=O)c1nnn(-c2nonc2N)c1CN1CCCCCC1`, for which the AC50 in assay [18] is < 0.016 µM (active); in assay [19], 0.0219 µM (active).

Take `Cc1ccc(NC(=O)CSc2nc3ccccc3c(=O)[nH]2)cc1Cl`: the CC50 in [20] and in assay [21] was > 100 µM (active) each time.
